From paper PMC6407579, “New flavonoid – N,N-dibenzyl(N-methyl)amine hybrids: Multi-target-directed agents for Alzheimer´s disease endowed with neurogenic properties” (Journal of Enzyme Inhibition and Medicinal Chemistry, 2019)
Where “and” joins values, the source holds several entries; their conditions need not be identical. Equal values may be shown once. Read-outs that look alike come from different tables or passages of the source.

Legend:
[1] = target: T1, hLOX-5 (Homo sapiens, UniProt P09917); test: Inhibition of human lipoxygenase-5 (fluorescence-based, Pufahl); assay type: biochemical; conditions: three independent experiments
T1 sequence (P09917 1-674): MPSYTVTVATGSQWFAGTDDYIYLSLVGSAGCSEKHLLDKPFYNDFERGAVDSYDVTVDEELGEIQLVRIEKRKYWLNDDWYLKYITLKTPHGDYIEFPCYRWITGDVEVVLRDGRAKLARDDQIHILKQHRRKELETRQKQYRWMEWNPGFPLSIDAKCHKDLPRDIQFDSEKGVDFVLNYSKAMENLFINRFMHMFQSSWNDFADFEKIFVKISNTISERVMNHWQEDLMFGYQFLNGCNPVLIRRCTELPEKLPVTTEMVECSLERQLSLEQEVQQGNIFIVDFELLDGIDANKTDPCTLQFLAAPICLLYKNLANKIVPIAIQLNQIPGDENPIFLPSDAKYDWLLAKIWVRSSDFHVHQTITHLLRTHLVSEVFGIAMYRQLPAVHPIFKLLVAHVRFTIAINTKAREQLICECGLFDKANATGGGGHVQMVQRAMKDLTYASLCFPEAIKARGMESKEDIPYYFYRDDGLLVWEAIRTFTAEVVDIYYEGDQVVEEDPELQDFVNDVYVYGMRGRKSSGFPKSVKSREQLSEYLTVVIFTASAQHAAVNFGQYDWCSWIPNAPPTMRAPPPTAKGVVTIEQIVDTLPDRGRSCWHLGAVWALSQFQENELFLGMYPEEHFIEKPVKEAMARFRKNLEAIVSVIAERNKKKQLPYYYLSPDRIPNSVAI
Description: The fluorescence-based enzyme method developed by Pufahl et al. was followed, in 96-well microtiter plates. The assay solution consists of Tris buffer (50 mM, pH 7.5), ethylenediaminetetraacetic acid (EDTA, 2 mM), CaCl2 (2 mM), arachidonic acid (AA, 3 μM), ATP (10 μM), 2',7'-dichlorodihydrofluorescein diacetate (H2DCFDA, 10 μM), hLOX-5 (100 mU/well), bovine glutathione peroxidase (GPx, 25 mU/well) and reduced glutathione (GSH, 1 mM). Compounds to be tested were added to the test solution prior to AA and ATP, and pre-incubated for a period of 10 min at room temperature. Then, the AA and ATP substrates were added; the enzymatic reaction allowed to progress for 20 min and ended by the addition of 40 μL of acetonitrile.
A selection of new hybrids covering different structural motifs was assayed as inhibitors of hLOX-5, followed the method described by Pufahl et al.[55].

[2] = Oxygen radical absorbance capacity assay (ORAC); conditions: trolox taken as 1.0
[3] = target: T2, hAChE (Homo sapiens, UniProt P22303); test: Kinetic analysis of hAChE inhibition (Lineweaver-Burk); assay type: biochemical
T2 construct: purchased Sigma Chemical Co
Description: Figure 3. Kinetic study on the mechanism of hAChE inhibition by hybrid 5. (A) Overlaid Lineweaver-Burk reciprocal plots of hAChE initial velocity at increasing substrate concentration (ATCh, 0.2–1.6 mM) in the absence of inhibitor and in the presence of 5 (0–10 µM) are shown. Lines were derived from a least-squares analysis of the data points. (B) Replot of slopes vs. inhibitor concentration for calculating Ki as the intersection in the x-axis. […]
The initial velocity of enzymatic inhibition was measured at four concentrations of the substrate acetylthiocholine (ATCh, 0.2–1.6 mM), in absence and presence of increasing concentrations of inhibitor 5 (0.5–10 µM). For each inhibitor concentration, plotting reciprocals of velocity vs. ATCh concentration (1/V vs. 1/[ATCh]) gave straight lines that were fitted by least-squares analysis (Figure 3). […]

[4] = tested on: adult mice SGZ-derived NSCs; test: Neurogenic assay on SGZ-derived neural stem cells grown as neurospheres; assay type: cell-based, mouse; conditions: 10 µM, 7 days plus 3 days differentiation, vs. vehicle-treated cultures
Description: DAPI was used for nuclear staining.
Neural stem cells were isolated from the SGZ of the dentate gyrus of the hippocampus of adult mice and cultured as NS according to previously published protocols[75]^,[76]. […] Now, NS were adhered onto 100 μg/mL poly-L-lysine-coated coverslips and treated for 3 additional days in the presence of serum but in the absence of exogenous growth factors to induce differentiation[77]. Finally, the expression of neuronal markers was analysed by immunocytochemistry using antibodies linked to neurogenesis: β-III-tubulin polyclonal antibody (TuJ clone; Abcam), a protein expressed at early stages of neurogenesis and a monoclonal microtubule-associated protein type 2 (MAP-2) antibody, a classical marker of late neuronal maturation. To visualise primary antibodies Alexa-fluor-labeled secondary antibodies (Molecular probes) were used. Nuclei were stained with DAPI. Fluorescent representative images were acquired in a LSM710 laser scanning spectral confocal microscope (Zeiss). […]
Compound was added to NS cultures for 7 days and then, NS were fixed to a substrate and allowed to differentiate in the presence of 6 for a 3-days additional period. Then, we evaluated the expression of β-III-tubulin (TuJ-1 clone; green) and microtubule-associated protein 2 (MAP-2, red) antibodies to visualise early and late neuronal maturation, respectively.

[5] = target: T3, human recombinant BACE-1 (hBACE-1) (Homo sapiens, UniProt P56817); test: Human BACE-1 inhibition FRET assay; assay type: biochemical
T3 construct: purchased Invitrogen
Description: This experiment was carried out according to the protocol described by the manufacturer (Invitrogen) using a FRET assay[54]. […] The intact substrate is weakly fluorescent and becomes highly fluorescent upon enzymatic cleavage. The assays were conducted in 50 mM sodium acetate buffer, pH 4.5, in a final enzyme concentration (1 U/mL). The mixture was incubated for 60 min at 25 °C under dark conditions and then stopped with 2.5 M sodium acetate.

[6] = mean ± SEM, read-out: hLOX-5 IC50

T2 sequence (P22303 32-614): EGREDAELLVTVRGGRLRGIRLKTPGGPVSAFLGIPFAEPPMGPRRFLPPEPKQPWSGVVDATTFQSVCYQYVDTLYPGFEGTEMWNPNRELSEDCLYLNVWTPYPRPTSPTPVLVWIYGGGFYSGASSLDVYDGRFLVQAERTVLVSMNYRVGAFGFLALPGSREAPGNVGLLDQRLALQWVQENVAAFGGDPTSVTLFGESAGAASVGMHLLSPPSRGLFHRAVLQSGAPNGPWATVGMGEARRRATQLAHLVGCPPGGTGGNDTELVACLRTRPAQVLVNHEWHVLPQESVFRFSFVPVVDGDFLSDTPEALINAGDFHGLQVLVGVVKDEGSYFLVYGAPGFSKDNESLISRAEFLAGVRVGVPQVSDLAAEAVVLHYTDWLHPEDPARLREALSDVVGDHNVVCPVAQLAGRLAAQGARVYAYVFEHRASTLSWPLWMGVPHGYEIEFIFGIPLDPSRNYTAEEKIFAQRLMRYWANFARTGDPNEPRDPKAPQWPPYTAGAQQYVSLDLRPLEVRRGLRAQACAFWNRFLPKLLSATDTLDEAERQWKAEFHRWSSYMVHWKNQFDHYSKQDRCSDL
T3 sequence (P56817 46-501): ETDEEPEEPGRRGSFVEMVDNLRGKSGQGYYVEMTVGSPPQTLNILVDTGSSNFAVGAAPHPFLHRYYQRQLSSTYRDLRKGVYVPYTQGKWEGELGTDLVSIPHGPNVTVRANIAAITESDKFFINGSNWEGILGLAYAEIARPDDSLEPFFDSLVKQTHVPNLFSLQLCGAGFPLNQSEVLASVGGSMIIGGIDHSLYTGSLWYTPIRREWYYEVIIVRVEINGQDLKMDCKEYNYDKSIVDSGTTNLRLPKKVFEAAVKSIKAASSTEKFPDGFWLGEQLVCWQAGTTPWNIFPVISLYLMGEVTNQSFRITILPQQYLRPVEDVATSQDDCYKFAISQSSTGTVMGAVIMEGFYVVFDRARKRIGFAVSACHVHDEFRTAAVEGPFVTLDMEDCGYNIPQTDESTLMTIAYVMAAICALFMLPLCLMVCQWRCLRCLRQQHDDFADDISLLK

COc1ccc2oc(C(=O)Nc3ccc(CN(C)Cc4ccccc4)cc3)cc(=O)c2c1 [Compound 1, N-(4-((Benzyl(methyl)amino)methyl)phenyl)-6-methoxy-4-oxo-4H-chromene-2-carboxamide]
IC50 [1, 6]: 12.4 ± 0.5 µM

CN(Cc1ccccc1)Cc1ccc(NC(=O)c2cc(=O)c3cc(O)ccc3o2)cc1 [Compound 2, N-(4-((Benzyl(methyl)amino)methyl)phenyl)-6-hydroxy-4-oxo-4H-chromene-2-carboxamide]
hLOX-5 IC50 ([1]; mean ± SEM): inactive | IC50 [1, 6]: > 100 µM | ORAC, trolox equivalents [2]: 1.6 mmol of trolox/mmol of tested compound and 1.6 ± 0.2 mmol of trolox/mmol of tested compound

COc1cc2oc(C(=O)Nc3ccc(CN(C)Cc4ccccc4)cc3)cc(=O)c2cc1OC [Compound 5, N-(4-((Benzyl(methyl)amino)methyl)phenyl)-6,7-dimethoxy-4-oxo-4H-chromene-2-carboxamide]
IC50 [1, 6]: 72.4 ± 2.2 µM | Ki [3]: 0.95 µM | mechanism of hAChE inhibition ([3]; Lineweaver-Burk): a mixture of competitive and non-competitive mechanisms

COc1cc2oc(C(=O)Nc3cccc(CN(C)Cc4ccccc4)c3)cc(=O)c2cc1OC [Compound 6, N-(3-((Benzyl(methyl)amino)methyl)phenyl)-6,7-dimethoxy-4-oxo-4H-chromene-2-carboxamide]
IC50 ([1]; hLOX-5 IC50, mean ± SEM): 30 µM and 30.4 µM | number of TuJ-1 and MAP-2 marked cells (neuronal differentiation of NSCs) [4]: clearly increased | inhibition at 10 µM ([5]; 10 µM, read-out: hBACE-1 inhibition percentage): ~80% | IC50 ([5]; inhibitor concentrations 0.1–100 µM): 6.7 ± 0.8 µM
